“And” between values parts separate entries of the source, which are not always exact repeats. Equal entries are not always repeated. “Also recorded” adds a separate entry of the source. Where two headings read alike, the source gives them in different places. Where a SMILES comes first, the peptide text is derived from it. The star is where a group is joined. Orn(α-tetramethylguanidino) = CN(C)C(=N[C@@H](CCCN)C(=O)*)N(C)C
Tests used:
E. coli ATCC 25922 [1] = settings: ref Czihal et al., 2012, cited from earlier work
Source text: Antimicrobial peptides (AMPs) are considered as promising alternatives to common antibiotics that threateningly lose their therapeutic potentials against multidrug-resistant pathogens (Fox, [2013]; Wang et al., [2015]). In contrast to approved therapeutic peptide hormones, antimicrobial peptides have to be administered at much higher doses, which may amplify general drawbacks of peptide therapeutics. […] Api137 appeared more efficient in this septicemia model due to the better scores obtained at ... || Apidaecin analogs Api88 and Api137 are similarly active against Gram-negative bacteria with a tendency of higher activity of Api88 against K. pneumoniae (Czihal et al., [2012]; Berthold et al., [2013]). However, Api88 carries a C-terminal amide that is responsible for its very fast proteolytic cleavage in serum, the supernatant obtained after complete coagulation and centrifugation of blood. The in vitro serum stability assay, which is an important in vitro criterion to select therapeutic peptides for systemic applications, yielded very short half-life times of 5 min for Api88, which indicate ...

E. coli ATCC 25922 [2] = settings: E. coli ATCC 25922; ref Czihal et al., 2012; Berthold et al., 2013; cited from earlier work
Source text: Antimicrobial peptides (AMPs) are considered as promising alternatives to common antibiotics that threateningly lose their therapeutic potentials against multidrug-resistant pathogens (Fox, [2013]; Wang et al., [2015]). In contrast to approved therapeutic peptide hormones, antimicrobial peptides have to be administered at much higher doses, which may amplify general drawbacks of peptide therapeutics. For example, the diabetes peptide drugs exenatide and pramlintide are given at daily doses of 20 μg (Byetta®; ~0.5 μg/kg) and 120 μg (Symlin®; ~1.5 μg/kg; Heine et al., [2005]; Hay et al., [2015]) ... || Apidaecin analogs Api88 and Api137 are similarly active against Gram-negative bacteria with a tendency of higher activity of Api88 against K. pneumoniae (Czihal et al., [2012]; Berthold et al., [2013]). However, Api88 carries a C-terminal amide that is responsible for its very fast proteolytic cleavage in serum, the supernatant obtained after complete coagulation and centrifugation of blood. The in vitro serum stability assay, which is an important in vitro criterion to select therapeutic peptides for systemic applications, yielded very short half-life times of 5 min for Api88, which indicate ...

in vitro = in vitro ADME, CD-1 mice; settings: female, CD-1, mouse, cerebrospinal or other body fluid
Procedure: Peritoneal lavage (1.5–2 mL) were collected from three euthanized female CD-1 mice (14 weeks, 32–33 g) after injecting sterile PBS intraperitoneal (4 mL). Peptides were incubated with aliquots (95 μL) of fresh lavage (75 μg/mL, 37°C, 750 rpm). After 0, 30, and 60 min trichloroacetic acid (25 μL, 15% w/v) was added to the samples to precipitate proteins, incubated on ice (10 min), and centrifuged (5 min, 12.400 × g). Supernatants were neutralized with sodium hydroxide (1 mol/L) and analyzed by RP-HPLC using a Poroshell 120 SB-C18-column (2.1 mm internal diameter, 100 mm length, 2.7 μm particle size, 12 nm pore size, Agilent Technologies Inc., Santa Clara, CA, USA) at 60°C and an aqueous acetonitrile gradient containing trifluoroacetic acid (0.1%, v/v). Absorbance was recorded at a wavelength of 214 nm.

E. coli ATCC 25922 [3] = experiment: Systemic septicemia infection mouse model (lethal intraperitoneal E. coli infection); format: in vivo, NMRI mice
Procedure: (§1) The acute toxicity of Api137 was studied by administering doses of 20, 40, 80, and 120 mg/kg intraperitoneally (i.p.) four times daily (0, 3, 7, and 24 h) into female NMRI mice (24–32 g, ~7 weeks old). For in vivo efficacy, female NMRI mice (high dose experiment: 24–27.1 g, 6 weeks; low dose experiment: 26.8–30.3 g, 7 weeks) were infected intraperitoneal with E. coli ATCC 25922, as described before (Czihal et al., [2012]; Knappe et al., [2012]). Briefly, each mouse was infected with 9 × 10^5 bacteria in the presence of 2.5% (w/v) mucin (0.3 mL in total). Mucin restricts acute macrophage activation in the intraperitoneal space and promotes establishment of a reproducible infection (Frimodt-Møller et al., [1999]). Mice were observed three times daily for their health status for a total of 5 days post-infection and weighed 1 day before and 1 and 5 days after infection. In accordance with the guidelines of the Animal Care and Usage Committee of the Landesdirektion Leipzig, moribund mice were euthanized.
Apidaecin Api137 (high dose experiment: 2.5 and 1.25 mg/kg body weight; low dose experiment: 0.6 and 0.3 mg/kg body weight) was administered intraperitoneal (0.3 mL) in seven mice per group three times post-infection (1, 4, and 8 h) as antibacterial therapy. Each experiment included seven mice receiving ciprofloxacin (40 mg/kg body weight) and four mice receiving only the vehicle (5% glucose in water, w/v) as positive and negative controls, respectively.

[4] = Acute toxicity, intraperitoneal administration; format: in vivo, NMRI mice
Procedure: as §1

| SMILES | Survival (E. coli ATCC 25922 [1]; 2.5 and 1.25 mg/kg i.p.) | Dose rescuing all mice (E. coli ATCC 25922 [1]; same infection model) [mg/kg] | MIC (E. coli ATCC 25922 [2]) | remaining at 1 h, 75 μg/mL (in vitro) [%] | Survival (E. coli ATCC 25922 [3]; 0.3 mg/kg i.p. three times post-infection (1, 4, 8 h), n = 7) | Survival (E. coli ATCC 25922 [3]; 0.6 mg/kg (and higher) i.p. three times post-infection (1, 4, 8 h), n = 7, 5 days observation) | Dose rescuing all mice (E. coli ATCC 25922 [3]; i.p. three times post-infection) [mg/kg] | ED50 (E. coli ATCC 25922 [3]; i.p. three times post-infection (1, 4, 8 h), approximate) [mg/kg] | half-life at 75 μg/mL (in vitro) [min] | Adverse side effects ([4]; 120 mg/kg per injection i.p. four times (0, 3, 7, 24 h)) | Survival ([4]; 120 mg/kg per injection i.p. four times, observation period 5 days) | Adverse side effects ([4]; 20, 40 and 80 mg/kg per injection i.p. four times (0, 3, 7, 24 h), seven animals per dose group) |
| --- | --- | --- | --- | --- | --- | --- | --- | --- | --- | --- | --- | --- |
| CC[C@H](C)[C@H](NC(=O)[C@H](Cc1ccc(O)cc1)NC(=O)[C@@H](NC(=O)[C@@H]1CCCN1C(=O)[C@H](CCCNC(=N)N)NC(=O)[C@H](CC(N)=O)NC(=O)[C@H](CC(N)=O)NC(=O)[C@H](CCCN)N=C(N(C)C)N(C)C)C(C)C)C(=O)N1CCC[C@H]1C(=O)N[C@@H](CCCNC(=N)N)C(=O)N1CCC[C@H]1C(=O)N[C@@H](CCCNC(=N)N)C(=O)N1CCC[C@H]1C(=O)N1CCC[C@H]1C(=O)N[C@@H](Cc1c[nH]cn1)C(=O)N1CCC[C@H]1C(=O)N[C@@H](CCCNC(=N)N)C(=O)N[C@@H](CC(C)C)C(N)=O [Api88] ({Orn(α-tetramethylguanidino)}-NNRPVYIPRPRPPHPRL-NH2) | rescued all NMRI mice | 1.25 | ~ 4 μg/mL | > 60 |  |  |  |  |  |  |  |  |
| CC[C@H](C)[C@H](NC(=O)[C@H](Cc1ccc(O)cc1)NC(=O)[C@@H](NC(=O)[C@@H]1CCCN1C(=O)[C@H](CCCNC(=N)N)NC(=O)[C@H](CC(N)=O)NC(=O)[C@H](CC(N)=O)NC(=O)[C@H](CCCN)N=C(N(C)C)N(C)C)C(C)C)C(=O)N1CCC[C@H]1C(=O)N[C@@H](CCCNC(=N)N)C(=O)N1CCC[C@H]1C(=O)N[C@@H](CCCNC(=N)N)C(=O)N1CCC[C@H]1C(=O)N1CCC[C@H]1C(=O)N[C@@H](Cc1c[nH]cn1)C(=O)N1CCC[C@H]1C(=O)N[C@@H](CCCNC(=N)N)C(=O)N[C@@H](CC(C)C)C(=O)O [Api137] ({Orn(α-tetramethylguanidino)}-NNRPVYIPRPRPPHPRL-OH) |  |  | 4 μg/mL and ~ 4 μg/mL |  | four out of seven mice | rescued all NMRI mice; also recorded: rescuing all animals | 0.6 | ~0.3 | ~20 | signs of discomfort in some animals and decreased mobility for up to 20 min after administration | all mice survived | none of the seven animals per dose group showed any signs of adverse side effects |

Reference: publication PMC5357639 (Frontiers in Chemistry, 2017)
